Measurements taken from PMC3599939 (BMC Infectious Diseases, 2013).

System: influenza virus neuraminidase (NA)
Assay type: biochemical

SMILES: CCOC(=O)C1=C[C@@H](OC(CC)CC)[C@H](NC(C)=O)[C@@H](N)C1 [Oseltamivir, oseltamivir]
- Phenotype (S/R): R and S
- sensitivity of viruses to Oseltamivir: sensitive
